Measurements from the supplement of paper PMC11061612.

How the values were obtained:
Experiment in all cases: Bliss excess, mean over the matrix (fraction); higher = more synergy
SF539 (Glioblastoma) = system: SF539 (Glioblastoma)
Summary of the method: (§1)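 Cell lines grown in DMEM/F12 or RPMI with 10% FBS were plated in 1536-well plates and held 24 hours at 37°C, 5% CO2 before 72 hours of exposure to two-drug dose matrices, with DMSO typically at 0.2%. CellTiter-Glo 2.0 luminescence gave viability, which was converted to inhibition. Vehicle wells were set to 0 and blank wells to 1. Combination Emax is the second-highest inhibition in the matrix, and Bliss excess is the observed combination effect minus the expected EA + EB − EA·EB, where EA and EB are the single-agent effects.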

[1] = system: MKN45 (Gastric Carcinoma)
Summary of the method: as §1

[2] = system: TE-8 (Esophageal Squamous Cell Carcinoma)
Summary of the method: as §1

[3] = system: 23132-87 (Gastric Carcinoma)
Summary of the method: as §1

[4] = system: RERF-LC-Sq1 (Squamous Cell Lung Carcinoma)
Summary of the method: as §1

[5] = system: HCT-15 (Colorectal Carcinoma)
Summary of the method: as §1

WM793B (Melanoma) = system: WM793B (Melanoma)
Summary of the method: as §1

[6] = system: RKN (Other Solid Carcinomas)
Summary of the method: as §1

[7] = system: RERF-GC-1B (Gastric Carcinoma)
Summary of the method: as §1

[8] = system: NCI-H23 (Lung Adenocarcinoma)
Summary of the method: as §1

LN-229 (Glioblastoma) = system: LN-229 (Glioblastoma)
Summary of the method: as §1

[9] = system: SU-DHL-10 (B-Cell Non-Hodgkin's Lymphoma)
Summary of the method: as §1

[10] = system: PANC-03-27 (Pancreatic Carcinoma)
Summary of the method: as §1

[11] = system: RCM-1 (Colorectal Carcinoma)
Summary of the method: as §1

[12] = system: KE-37 (T-Lymphoblastic Leukemia)
Summary of the method: as §1

A2058 (Melanoma) = system: A2058 (Melanoma)
Summary of the method: as §1

[13] = system: PC-3_[JPC-3] (Lung Adenocarcinoma)
Summary of the method: as §1

[14] = system: HEC-1 (Endometrial Carcinoma)
Summary of the method: as §1

[15] = system: LB996-RCC (Kidney Carcinoma)
Summary of the method: as §1

[16] = system: COLO-680N (Esophageal Squamous Cell Carcinoma)
Summary of the method: as §1

| SMILES | Bliss excess (SF539 (Glioblastoma)) | Bliss excess [1] | Bliss excess [2] | Bliss excess [3] | Bliss excess [4] | Bliss excess [5] | Bliss excess (WM793B (Melanoma)) | Bliss excess [6] | Bliss excess [7] | Bliss excess [8] | Bliss excess (LN-229 (Glioblastoma)) | Bliss excess [9] | Bliss excess [10] | Bliss excess [11] | Bliss excess [12] | Bliss excess (A2058 (Melanoma)) | Bliss excess [13] | Bliss excess [14] | Bliss excess [15] | Bliss excess [16] |
| --- | --- | --- | --- | --- | --- | --- | --- | --- | --- | --- | --- | --- | --- | --- | --- | --- | --- | --- | --- | --- |
| COc1cccc(OCCCN)c1-c1cc(Nc2cnc(C#N)cn2)n[nH]1 [Prexasertib] + CN(C)CCCOc1ccc(-c2ccc3ncc4c(c3c2)n(C2CCOCC2)c(=O)n4C)cn1 [AZD0156] (first compound max 1 µM, 7x7, partner max 1 µM) | -0.0339 | -0.0645 | -0.0033 | -0.0009 | -0.0209 | 0.0607 | -0.0265 | -0.0478 | 0.0049 | -0.0245 | -0.035 | -0.049 | -0.0704 | -0.0358 | -0.0022 | 0.007 | -0.0526 | -0.0146 | 0.0028 | -0.0393 |
| COc1cccc(OCCCN)c1-c1cc(Nc2cnc(C#N)cn2)n[nH]1 [Prexasertib] + C[C@@H]1COCCN1C2=NC(=NC(=C2)C3(CC3)[S@](=N)(=O)C)C4=C5C=CNC5=NC=C4 [AZD6738] (first compound max 1 µM, 7x7, partner max 10 µM) | -0.0046 | -0.0931 | -0.0122 | -0.0085 | -0.0492 | 0.0391 | -0.05 | -0.027 | -0.119 | -0.0504 | -0.0577 | -0.0067 | -0.0577 | -0.0307 | 0.0043 | 0.0232 | 0.0576 | -0.0434 | 0.0355 | 0.0342 |
| COc1cccc(OCCCN)c1-c1cc(Nc2cnc(C#N)cn2)n[nH]1 [Prexasertib] + Cc1cc2ncnn2cc1Nc1ncc2c(n1)n(C1CCOCC1)c(=O)n2C [AZD7648] (first compound max 1 µM, 7x7, partner max 10 µM) | 0.014 | -0.0229 | -0.0448 | -0.0365 | -0.0281 | -0.0449 | -0.0169 | -0.0293 | 0.0015 | -0.026 | -0.0596 | -0.045 | -0.0606 | -0.0166 | -0.006 | 0.0025 | -0.0103 | 0.0762 | 0.0292 | -0.0491 |
| COc1cccc(OCCCN)c1-c1cc(Nc2cnc(C#N)cn2)n[nH]1 [Prexasertib] + O=C(c1cc(Cc2n[nH]c(=O)c3ccccc23)ccc1F)N1CCN(C(=O)C2CC2)CC1 [Olaparib] (first compound max 1 µM, 7x7, partner max 10 µM) | 0.0007 | -0.044 | -0.075 | -0.0503 | -0.0373 | -0.0077 | -0.0688 | -0.0958 | -0.0275 | -0.0675 | -0.181 | 0.0083 | -0.0102 | -0.196 | 0.0073 | 0.0158 | -0.0525 | -0.0535 | -0.0145 | -0.0652 |
| COc1cc2c(cc1OCCCCCOc1cc3c(cc1OC)C(=O)N1C=C(C)C[C@H]1C=N3)N=C[C@@H]1CC(C)=CN1C2=O [SG3199] + O=C(c1cc(Cc2n[nH]c(=O)c3ccccc23)ccc1F)N1CCN(C(=O)C2CC2)CC1 [Olaparib] (first compound max 0.001 µM, 7x7, partner max 10 µM) | -0.0049 | -0.0633 | -0.049 | 0.0217 | 0.0049 | 0.0701 | -0.0198 | -0.0377 | 0.0263 | 0.0008 | -0.0454 | -0.0177 | -0.062 | -0.0371 | 0.0055 | -0.0172 | -0.0368 | 0.0483 | 0.0077 | -0.043 |
| CCc1c2c(nc3ccc(O)cc13)-c1cc3c(c(=O)n1C2)COC(=O)[C@]3(O)CC [SN-38] + CN(C)CCCOc1ccc(-c2ccc3ncc4c(c3c2)n(C2CCOCC2)c(=O)n4C)cn1 [AZD0156] (first compound max 0.3 µM, 7x7, partner max 1 µM) | 0.0216 | -0.049 | 0.148 | 0.0322 | 0.114 | 0.0187 | -0.0295 | 0.0057 | 0.0092 | -0.0247 | -0.0305 | -0.0242 | -0.0071 | -0.0005 | 0.0603 | 0.0477 | -0.0551 | -0.0374 | 0.0011 | 0.0306 |
| C[C@@H](c1ccc2nccn2c1)n1nnc2ncc(-c3cnn(C)c3)nc21 [Savolitinib] + CC1(C)CCC(CN2CCN(c3ccc(C(=O)NS(=O)(=O)c4ccc(NCC5CCOCC5)c([N+](=O)[O-])c4)c(Oc4cnc5[nH]ccc5c4)c3)CC2)=C(c2ccc(Cl)cc2)C1 [Venetoclax] (first compound max 1 µM, 7x7, partner max 1 µM) | -0.0697 | -0.0664 | -0.105 | -0.0578 | -0.0562 | -0.012 | -0.0603 | -0.0529 | -0.0303 | -0.0486 | -0.0679 | -0.0048 | -0.0176 | -0.0416 | -0.0357 | -0.0611 | -0.0457 | -0.0423 | -0.0725 | -0.0115 |
| C[C@@H](c1ccc2nccn2c1)n1nnc2ncc(-c3cnn(C)c3)nc21 [Savolitinib] + Cc1c2c(nn1C)CSCc1cc(n(C)n1)CSc1cc(c3ccccc3c1)OCCCc1c(C(=O)O)n(C)c3c-2c(Cl)ccc13 [AZD5991] (first compound max 1 µM, 7x7, partner max 1 µM) | -0.0337 | -0.0133 | -0.0142 | 0.0014 | -0.009 | 0.0013 | -0.0658 | -0.0706 | -0.0141 | -0.0163 | -0.0372 | -0.0034 | -0.0541 | -0.0451 | -0.0335 | -0.0043 | -0.0216 | -0.0541 | -0.0372 | -0.0291 |
| Cn1cnc2c(F)c(Nc3ccc(Br)cc3Cl)c(C(=O)NOCCO)cc21 [Selumetinib] + C=CCn1c(=O)c2cnc(Nc3ccc(N4CCN(C)CC4)cc3)nc2n1-c1cccc(C(C)(C)O)n1 [AZD1775] (first compound max 10 µM, partner max 1 µM) | -0.025 | -0.0765 | 0.0076 | -0.0804 | -0.0617 | -0.0198 | 0.004 | -0.0397 | 0.025 | 0.0223 | -0.0115 | 0.0359 | -0.0164 | -0.0359 | 0.0083 | -0.029 | -0.0332 | -0.0448 | -0.0886 | 0.0147 |
| Cn1cnc2c(F)c(Nc3ccc(Br)cc3Cl)c(C(=O)NOCCO)cc21 [Selumetinib] + CC(C)n1c(=O)n(C)c2cnc3cc(F)c(-c4ccc(OCCCN5CCCCC5)nc4)cc3c21 [AZD1390] (first compound max 10 µM, 7x7, partner max 0.3 µM) | -0.0232 | -0.0388 | 0.0186 | -0.0449 | 0.0117 | -0.0001 | -0.0211 | 0.0378 | 0.0413 | -0.0103 | -0.0563 | -0.0183 | 0.01 | -0.0495 | 0.0255 | -0.0155 | -0.0445 | -0.0412 | -0.0262 | -0.0022 |
| Cn1cnc2c(F)c(Nc3ccc(Br)cc3Cl)c(C(=O)NOCCO)cc21 [Selumetinib] + CCN(CCO)CCCOc1ccc2c(Nc3cc(CC(=O)Nc4cccc(F)c4)[nH]n3)ncnc2c1 [AZD2811] (first compound max 10 µM, 7x7, partner max 1 µM) | -0.0193 | 0.0107 | -0.0471 | -0.0264 | -0.0041 | 0.0193 | -0.0465 | -0.0232 | 0.0288 | 0.0194 | -0.0303 | -0.0915 | 0.0374 | -0.0259 | -0.0047 | 0.0945 | -0.0748 | -0.0402 | -0.0359 | -0.0324 |
| Cn1cnc2c(F)c(Nc3ccc(Br)cc3Cl)c(C(=O)NOCCO)cc21 [Selumetinib] + C[C@@H]1COCCN1C2=NC(=NC(=C2)C3(CC3)[S@](=N)(=O)C)C4=C5C=CNC5=NC=C4 [AZD6738] (first compound max 10 µM, 7x7, partner max 10 µM) | 0.0586 | -0.0731 | -0.0289 | -0.0627 | 0.0516 | -0.0057 | -0.0447 | 0.0584 | 0.152 | 0.0385 | 0.0078 | 0.0181 | -0.0117 | -0.132 | 0.0087 | 0.059 | -0.0671 | -0.0317 | -0.0871 | -0.0258 |
| CC(=O)Nc1cccc(-n2c(=O)n(C3CC3)c(=O)c3c(Nc4ccc(I)cc4F)n(C)c(=O)c(C)c32)c1 [Trametinib] + Cc1nc(-c2cn3c(n2)-c2ccc(-c4cnn(C(C)(C)C(N)=O)c4)cc2OCC3)n(C(C)C)n1 [Taselisib] (first compound max 1 µM, 7x7, partner max 10 µM) | 0.177 | -0.0862 | 0.129 | 0.0654 | 0.0906 | 0.139 | 0.0203 | 0.124 | 0.0909 | 0.189 | 0.19 | 0.0528 | 0.156 | 0.0117 | 0.0968 | 0.104 | 0.166 | 0.11 | 0.0519 | 0.063 |
| CC1(C)CCC(CN2CCN(c3ccc(C(=O)NS(=O)(=O)c4ccc(NCC5CCOCC5)c([N+](=O)[O-])c4)c(Oc4cnc5[nH]ccc5c4)c3)CC2)=C(c2ccc(Cl)cc2)C1 [Venetoclax] + C1CN(CCC1(C(=O)N[C@@H](CCO)C2=CC=C(C=C2)Cl)N)C3=NC=NC4=C3C=CN4 [Capivasertib] (first compound max 1 µM, 7x7, partner max 3 µM) | -0.0189 | -0.0205 | -0.0569 | -0.0427 | -0.0391 | -0.0383 | -0.029 | -0.0469 | -0.0297 | -0.0081 | -0.0394 | -0.0078 | -0.0881 | -0.0293 | 0.012 | -0.0333 | -0.0399 | -0.0465 | -0.0573 | -0.0482 |
